According to US9180217B2, “Sterilization system and device” (priority 2004, dated 2015):
“Also recorded” adds a separate entry of the source.

Assays:
Bacillus subtilis = assay: Portable system (blood storage container, diazeniumdiolate plus acidic buffer) sterilization of stainless steel strips; assay type: cell-based, B. subtilis (vegetative); conditions: Fifteen Minute Sterilization Cycle; stainless steel strip
Source text: (§1) Similar to Example 1, a portable system is devised using blood storage containers and other laboratory items. In this construct, a blood storage container (Nexell, Irvine, Calif.; Lifecell PL732 plastic tissue culture flask) serves as the sterilization chamber. It has multiple ports, is easily attached to tubing or other chambers, and is easily cut and heat sealed for insertion and removal of contaminated/sterilized samples. The heat seal is strong and holds well at pressure, even though 1 ATM of pressure is used experimentally. Two 60 ml syringes connected to each other and a line of tubing by a three-way stopcock are employed to mix acidic buffer in one syringe with NO-releasing diazeniumdiolate in the other syringe. The tubing is connected to the blood container/sterilization chamber.
(§2) The stopcock is turned so that the acidic buffer can be added to the syringe containing the diazeniumdiolate. The valve is immediately closed to the buffer syringe and opened to the sterilization chamber. The 300 cc sterilization chamber inflates in about 15 seconds. Experiments are performed as described above, except that the devised system is used instead of the pressure vessel.
(§3) The test organisms are cultured overnight in BHI. The cultures contained at least 10^8 CFU/ml (100-fold greater than FDA testing guidelines) based on standardized ABS595 curves for each organism. […]

[1] = test system: Staphylococcus epidermides; assay: as above; assay type: cell-based, S. epidermides; conditions: Fifteen Minute Sterilization Cycle; stainless steel strip
Source text: as §1, §2, §3

[2] = test system: bacterial cocktail containing B. subtilis, S. marcesens, and S. epidermides; assay: Sterilization of medical materials (tubing, needle); assay type: cell-based; conditions: 15 min Sterilization Cycle
Description: In this Example, the sterilization of medically relevant materials, such as needles and plastic tubing, is tested. Teflon (⅛′ ID), polyethylene (1.77 mm ID), vinyl (0.5 mm ID) tubing and a 30 gauge disposable needle are dipped in a bacterial cocktail containing B. subtilis, S. marcesens, and S. epidermides at about 10^8 total CFU/ml The samples are placed in the sterilization chamber and sealed. In each case, the lumen (the inner open space or cavity within the tubing) of the tubing or the needle contained at least some visually confirmed inoculum. […] The controls for each material reached at least 10^6 total CFU/ml in 24 hrs as determined by ABS595 standardization curves.

cocktail of bacteria = assay: Humidity effects on live bacteria, sealed and unsealed dry samples; assay type: cell-based; conditions: 15 min Sterilization cycle, 1 atmosphere
Source text: This Example tests several humidifying paradigms and the ability to sterilize through a gas sterilization seal pouch. A cocktail of bacteria is used, grown to about 10^8 CFU/ml and mixed in equal volume. Stainless steel strips are dipped, allowed to dry, and subject to one of three methods: A, B and C. Method A samples are wrapped in a moist Kimwipe. Method B samples are left dry. Method C samples are dried and sealed in a V. Mueller™ Dual Peel Seal Pouch, which is designed for gas and autoclave sterilizations. Samples from methods B and C are placed in the sterilization chamber with a moist Kimwipe. Placement in the chamber is done so as to insure maximal separation of the Kimwipe and the sample(s). The chamber is re-sealed carefully so as not to disturb the positioning of the samples relative to the Kimwipe. Each sample is exposed to a 15 minute sterilization cycle at 1 atmosphere, removed under sterile conditions, and the samples are placed in BHI media as described above. Experimental samples are exposed to NO gas while control samples are handled identically, except that the chamber is gassed with nitrogen. All controls reached greater than 10^6 total CFU/ml in 24 hrs as determined by ABS595 standardization curves.

[3] = test system: Bacillus stearothemophilus spores (ATCC 7953); assay: Spore studies in lumens (wire biological indicators, resistometer); assay type: cell-based; conditions: 5 min, 23° C., NO then air
Description: The ability of the nitrogen oxide gases to penetrate an inner open space or cavity within a tube (i.e., a lumen) and inactivate spores in the lumen is evaluated. The spores used are those that are most resistant to the nitrogen oxide gases.
The following configuration of lumens are tested:
(a) 17″ stainless (SS) tubes having a 2.5 mm inner diameter (I.D.), bent in “U” shape
(b) 60″ polyethylene (PE) tube having a 4.5 mm ID, coiled and in Tyvek pouch
(c) 60″ PE tube having a 4.5 mm ID and a 1.5 mm outer diameter (O.D.) PEEK tube inside, coiled and in Tyvek pouch
Wire biological indicators are inoculated with 10^6 Bacillus stearothemophilus spores (ATCC 7953), (Raven Lot 3W67583) and placed at the center point of the tube in each of these configurations. The coiled polyethylene tubes were then heat-sealed in a TYVEK sterilization pouch.
Separately, each of the lumen samples are tested. The stainless steel tube (triplicate samples: SS-1, SS-2, and SS-3), the polyethylene tube, and the polyethylene tube with the PEEK catheter were each placed in a resistometer and exposed to the following gas cycle for 5 minutes at 23° C. This gas cycle is defined as follows: […]
The sterilization chamber/resistometer is evacuated and held at vacuum for 2 minutes. NO gas is then added to the sterilization chamber until the vacuum is decreased by 1″Hg. This condition is maintained for 2 minutes. Are is then added until the chamber reaches atmospheric pressure and the condition is held for 5 minutes.

In the case of `[N]=O` [NO, nitric oxide], the “trials Killed” value (Bacillus subtilis) was 2/2, the “trials Killed” value [1] was 3/3 Killed and the “trials Killed” value ([2]; Disposable Needle 30 gauge) was 2/2 Killed. For the same compound, the “trials Killed” value ([2]; Polyethylene Tubing 1.77 mm ID) was 2/2 Killed, the “trials Killed” value ([2]; Teflon Tubing 1/8′ ID) was 2/2 Killed and the “trials Killed” value ([2]; Vinyl Tubing 0.5 mm ID) was 2/2 Killed. For the same compound, the “trials Killed” value (cocktail of bacteria; Method A, sample wrapped in Moist Kimwipe) was “Killed”, the “trials Killed” value (cocktail of bacteria; Method B, Dry sample) was “sterilized dry samples; also recorded: Killed” and the “trials Killed” value (cocktail of bacteria; Method C, Dry, Sealed in Dual Peel Seal Pouch) was “Killed”. The “spore condition (Dead/Live) after 14 days of incubation” value (from here on “spore condition (Dead/Live)”) ([3]; (a) SS-1, 17″ stainless tube 2.5 mm I.D.) was “Dead”, the “spore condition (Dead/Live)” value ([3]; (a) SS-2, 17″ stainless tube 2.5 mm I.D.) was “Dead” and the “spore condition (Dead/Live)” value ([3]; (a) SS-3, 17″ stainless tube 2.5 mm I.D.) was “Dead”. The “spore condition (Dead/Live)” value ([3]; (b) PE Sheath, 60″ polyethylene tube 4.5 mm ID in Tyvek pouch) was “Dead” and the “spore condition (Dead/Live)” value ([3]; (c) PE Sheath with Catheter (PEEK tube inside) in Tyvek pouch) was “Dead”.
